Strand notation (5' to 3'): a small letter for the sugar, then the base; units joined by * are phosphorothioate-linked, units joined directly phosphodiester-linked; [ ] holds rarer units or linkages, { } end groups; capitals alone tell only the bases. k = constrained ethyl (cEt); [5mC] = 5-methylcytosine; d = 2'-deoxy (DNA)
Columns and labels:
Yap1 mRNA [1] = assay: Dose-dependent inhibition of human Yap1 in A-431 cells (Example 7, 10,000 cells per well, RTS36584); assay type: cell-based; details: free uptake; for Yap1 mRNA, % UTC: A-431 cells 10,000 cells per well, 48 hours
Procedure, shortened: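 A-431 cells at 10,000 per well received modified oligonucleotides by free uptake at several doses. After about 48 hours, Yap1 mRNA was quantified with primer-probe set RTS36584, normalized to RIBOGREEN total RNA and expressed as % untreated control. IC50 came from linear regression on a log/linear plot.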

[2] = Tolerability in Balb/c mice, plasma chemistry markers (Example 12); assay type: in vivo; details: 50 mg/kg subcutaneously twice a week for four weeks
Experimental: Balb/c mice were treated with modified oligonucleotides selected from studies described above and evaluated for changes in the levels of various plasma chemistry markers.
(§1) Groups of male Balb/c mice at 6-7 weeks of age (obtained from Taconic) were injected subcutaneously twice a week for four weeks (for a total of 8 treatments) with 50 mg/kg of modified oligonucleotides. One group of male Balb/c mice was injected with PBS. Mice were euthanized on day 26 post start of treatment (24 hours following the final administration).

[3] = Tolerability in Balb/c mice, body and organ weights (Example 12); assay type: in vivo; details: male Balb/c mice, 50 mg/kg s.c. twice a week for four weeks (8 treatments), end of study (day 26)
Experimental: as §1
Body weights of Balb/c mice were measured at the end of the study, and the average body weight for each group is presented in the table below. Modified oligonucleotides that caused any changes in organ weights outside the expected range for modified oligonucleotides were excluded from further studies.

Yap1 mRNA [4] = assay: Antisense inhibition of human Yap1 in A-431 cells by cEt gapmers, single dose (Example 1, RTS4814); assay type: cell-based
Procedure, shortened: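 Free uptake of 2,000 nM 3-10-3 cEt gapmer (16-mer, full phosphorothioate, 5-methylcytosines) in A-431 cells for ~48 h. Yap1 mRNA quantified by qRT-PCR with set RTS4814, normalized to total RNA (RiboGreen), and expressed as % of untreated control; asterisked values target the amplicon region.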

Yap1 mRNA [5] = assay: Antisense inhibition of human Yap1 in A-431 cells by cEt gapmers, single dose (Example 3, RTS36584); assay type: cell-based; details: A-431 cells, 5,000 cells per well
Procedure, shortened: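 A-431 cells were treated by free uptake with 2,000 nM modified oligonucleotide (3-10-3 cEt gapmers, full phosphorothioate, 5-methylcytosines) for about 48 hours. Yap1 mRNA was quantified by real-time RT-PCR, normalized to RiboGreen total RNA, and expressed as % of untreated control; asterisked values mark oligonucleotides targeting the amplicon region.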

[6] = Table 8, free uptake, 2,000 nM, approximately 48 hours, RTS36584, normalized to RIBOGREEN, Yap1 mRNA relative to untreated control cells

Substance | ALT [2] [U/L] | AST [2] [U/L] | BUN [2] [mg/dL] | TBIL [2] [mg/dL] | Kidney weight [3] [g] | Liver weight [3] [g] | Spleen weight [3] [g] | body weight [3] [g] | YAP1 (% UTC) (Yap1 mRNA [5]; [6]) | further results
958736 (kG*kT*kG*dA*dT*dA*dT*dG*dG*dA*dT*dT*d[5mC]*kT*kG*kT; antisense) [compound 958736] | 2439 | 1450 | 20 | 0.31 | 0.39 | 1.95 | 0.18 | 24 | – | Yap1 mRNA, % UTC (Yap1 mRNA [1]; Table 56, 15.6 nM): 83 % UTC; Yap1 mRNA, % UTC (Yap1 mRNA [1]; Table 56, 62.5 nM): 38 % UTC; Yap1 mRNA, % UTC (Yap1 mRNA [1]; Table 56, 4000.00 nM): 7 % UTC; IC50 (Yap1 mRNA [1]; Table 56, A-431 cells 10,000 cells per well): 0.06 µM
958554 (kA*kA*k[5mC]*d[5mC]*dA*dT*dT*dA*dT*dT*dA*d[5mC]*dT*k[5mC]*k[5mC]*kT; antisense) [compound 958554] | 583 | 1051 | 17 | 0.28 | 0.28 | 1.05 | 0.15 | 22 | – | Yap1 mRNA, % UTC (Yap1 mRNA [1]; Table 60, 15.6 nM): 70 % UTC; Yap1 mRNA, % UTC (Yap1 mRNA [1]; Table 60, 62.5 nM): 34 % UTC; Yap1 mRNA, % UTC (Yap1 mRNA [1]; Table 60, 4000.00 nM): 4 % UTC; IC50 (Yap1 mRNA [1]; Table 60, A-431 cells 10,000 cells per well): 0.03 µM
715491 (antisense kA*kA*k[5mC]*d[5mC]*dA*dA*d[5mC]*dT*dA*dT*dT*dA*d[5mC]*kT*kT*k[5mC]) [Compound 715491] | – | – | – | – | – | – | – | – | 8 | YAP1 (% UTC) (Yap1 mRNA [4]; Table 2, A-431 cells, free uptake, 2,000 nM, approximately 48 hours, RTS4814, Yap1 mRNA relative to untreated control cells): 71 % UTC
715483 (antisense k[5mC]*kT*k[5mC]*dT*dT*dT*dG*dG*dA*dA*dA*d[5mC]*d[5mC]*kA*kT*kT) [Compound 715483] | – | – | – | – | – | – | – | – | 2 | YAP1 (% UTC) (Yap1 mRNA [4]; A-431 cells, 5,000 cells per well, free uptake, 2,000 nM modified oligonucleotide, approx. 48 hours, RTS4814, normalized to RIBOGREEN, Table 3): 15 % UTC; YAP1 (% UTC) (Yap1 mRNA [5]; Table 9, free uptake, 2,000 nM, approximately 48 hours, RTS36584, normalized to RIBOGREEN, Yap1 mRNA relative to untreated control cells): 1 % UTC; YAP1 (% UTC) (Yap1 mRNA [5]; Table 10, free uptake, 2,000 nM oligonucleotide, approx. 48 hours, primer probe set RTS36584, Yap1 mRNA normalized to RIBOGREEN, percent of untreated control): 2 % UTC; YAP1 (% UTC) (Yap1 mRNA [5]; Table 11, free uptake, 2,000 nM oligonucleotide, approx. 48 hours, primer probe set RTS36584, Yap1 mRNA normalized to RIBOGREEN, percent of untreated control): 1 % UTC; YAP1 (% UTC) (Yap1 mRNA [5]; Table 12, free uptake, 2,000 nM modified oligonucleotide, approx. 48 hours, RTS36584, normalized to RIBOGREEN, Yap1 mRNA relative to untreated control cells): 1 % UTC; YAP1 (% UTC) (Yap1 mRNA [5]; Table 13, free uptake, 2,000 nM modified oligonucleotide, approx. 48 hours, RTS36584, normalized to RIBOGREEN, Yap1 mRNA relative to untreated control cells): 1 % UTC
715571 (kA*kA*kA*dA*dT*d[5mC]*d[5mC]*dT*dG*d[5mC]*d[5mC]*dA*dA*k[5mC]*kA*kT; antisense) [Compound 715571] | – | – | – | – | – | – | – | – | – | YAP1 (% UTC) (Yap1 mRNA [4]; Table 1, A-431 cells, free uptake, 2,000 nM, approximately 48 hours, RTS4814, Yap1 mRNA relative to untreated control cells): 127 % UTC

Source: patent US11214803B2, “Modulators of YAP1 expression” (Ionis Pharmaceuticals, Inc., priority 2019, dated 2022)
